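Method: 48-hour compound exposure of cells in 96-well plates, five concentrations, linear interpolation of endpoints. GI50 is the concentration that inhibits growth by half.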 The source made the active and inactive calls. No stated cut-off is given here; in the data, active = GI50 up to about 1.1 µM and inactive = higher.
Tests used:
Experiment in all cases: NCI tumour cell line growth inhibition, 48 h
786-0 = test system: 786-0
A549 = test system: A549
CAKI-1 = test system: CAKI-1
COLO 205 = test system: COLO 205
EKVX = test system: EKVX
HCC 2998 = test system: HCC 2998
HT-29 = test system: HT-29
IGROV-1 = test system: IGROV-1
KM12 = test system: KM12
M14 = test system: M14
MDA-MB-231 = test system: MDA-MB-231
NCI-H226 = test system: NCI-H226
NCI-H522 = test system: NCI-H522
OVCAR-8 = test system: OVCAR-8
SK-MEL-28 = test system: SK-MEL-28
SK-MEL-2 = test system: SK-MEL-2
SK-MEL-5 = test system: SK-MEL-5
SK-OV-3 = test system: SK-OV-3
UACC-257 = test system: UACC-257
UO-31 = test system: UO-31

SMILES | GI50 (786-0) | GI50 (A549) | GI50 (CAKI-1) | GI50 (COLO 205) | GI50 (EKVX) | GI50 (HCC 2998) | GI50 (HT-29) | GI50 (IGROV-1) | GI50 (KM12) | GI50 (M14) | GI50 (MDA-MB-231) | GI50 (NCI-H226) | GI50 (NCI-H522) | GI50 (OVCAR-8) | GI50 (SK-MEL-28) | GI50 (SK-MEL-2) | GI50 (SK-MEL-5) | GI50 (SK-OV-3) | GI50 (UACC-257) | GI50 (UO-31)
Nc1nncs1 | 4080 µM (inactive) | 942 µM (inactive) | 1760 µM (inactive) | 456 µM (inactive) | 1320 µM (inactive) | 2160 µM (inactive) | 211 µM (inactive) | 2580 µM (inactive) | 1940 µM (inactive) | 1580 µM (inactive) | 2320 µM (inactive) | 3480 µM (inactive) | 1210 µM (inactive) | 1910 µM (inactive) | 1980 µM (inactive) | > 5000 µM (inactive) | 2360 µM (inactive) | 151 µM (inactive) | 705 µM (inactive) | 3530 µM (inactive)
O=C(O)c1cc2ccccc2c(/N=N/c2ccc(S(=O)(=O)O)cc2)c1O | > 100 µM (inactive) | > 100 µM (inactive) | > 100 µM (inactive) | > 100 µM (inactive) | > 100 µM (inactive) | > 100 µM (inactive) | > 100 µM (inactive) | > 100 µM (inactive) | > 100 µM (inactive) | > 100 µM (inactive) | > 100 µM (inactive) | > 100 µM (inactive) | > 100 µM (inactive) | > 100 µM (inactive) | > 100 µM (inactive) | > 100 µM (inactive) | > 100 µM (inactive) | > 100 µM (inactive) | > 100 µM (inactive) | 60.3 µM (inactive)
Cc1cc(C)c2c(=O)n(CN3CCC(O)(c4ccccc4)CC3)sc2n1 | 17.1 µM (inactive) | > 100 µM (inactive) | 43.5 µM (inactive) | 39.2 µM (inactive) | 25 µM (inactive) | 27.4 µM (inactive) | 28.4 µM (inactive) | > 100 µM (inactive) | > 100 µM (inactive) | 50 µM (inactive) | 73.1 µM (inactive) | > 100 µM (inactive) | 11.8 µM (inactive) | 30.1 µM (inactive) | 56.2 µM (inactive) | > 100 µM (inactive) | 97.3 µM (inactive) | > 100 µM (inactive) | – | 17.2 µM (inactive)
CCCCOc1c(C(=O)O)cc(Br)cc1C(=O)O | > 100 µM (inactive) | > 100 µM (inactive) | > 100 µM (inactive) | > 100 µM (inactive) | > 100 µM (inactive) | > 100 µM (inactive) | – | > 100 µM (inactive) | > 100 µM (inactive) | > 100 µM (inactive) | > 100 µM (inactive) | > 100 µM (inactive) | > 100 µM (inactive) | > 100 µM (inactive) | > 100 µM (inactive) | > 100 µM (inactive) | > 100 µM (inactive) | > 100 µM (inactive) | > 100 µM (inactive) | > 100 µM (inactive)
Cc1nc(Cl)c(C)c(Cl)n1 | > 100 µM (inactive) | > 100 µM (inactive) | 0.0216 µM (active) | > 100 µM (inactive) | > 27 µM (inactive) | 99.1 µM (inactive) | > 44.7 µM (inactive) | 15.9 µM (inactive) | > 59.6 µM (inactive) | 37.7 µM (inactive) | > 100 µM (inactive) | > 100 µM (inactive) | < 0.01 µM (active) | > 100 µM (inactive) | > 93.3 µM (inactive) | > 100 µM (inactive) | > 59 µM (inactive) | > 100 µM (inactive) | > 100 µM (inactive) | –
Cc1ccc(S(=O)(=O)n2cc(C=O)c(-c3cn(S(=O)(=O)c4ccc(C)cc4)cc3-c3cn(S(=O)(=O)c4ccc(C)cc4)cc3C=O)c2)cc1 | 35.8 µM (inactive) | 72.4 µM (inactive) | > 100 µM (inactive) | 75.2 µM (inactive) | 16.7 µM (inactive) | > 100 µM (inactive) | 36.2 µM (inactive) | 53.8 µM (inactive) | 50.7 µM (inactive) | 29.6 µM (inactive) | > 100 µM (inactive) | 29.6 µM (inactive) | 26.9 µM (inactive) | 37.2 µM (inactive) | – | 33.8 µM (inactive) | 41.6 µM (inactive) | > 100 µM (inactive) | 54.1 µM (inactive) | 52.6 µM (inactive)
Nn1c(CCCCCCCCc2nnc(COc3ccccc3)n2N)nnc1COc1ccccc1 | > 100 µM (inactive) | > 100 µM (inactive) | > 100 µM (inactive) | > 100 µM (inactive) | > 100 µM (inactive) | > 100 µM (inactive) | > 100 µM (inactive) | > 100 µM (inactive) | > 100 µM (inactive) | > 100 µM (inactive) | > 100 µM (inactive) | > 100 µM (inactive) | > 100 µM (inactive) | > 100 µM (inactive) | > 100 µM (inactive) | > 100 µM (inactive) | > 100 µM (inactive) | > 100 µM (inactive) | > 100 µM (inactive) | > 100 µM (inactive)
O=[N+]([O-])c1ccc2c(c1)c1nn2CCCCOc2nn(c3ccc([N+](=O)[O-])cc23)CCCCO1 | > 100 µM (inactive) | – | > 100 µM (inactive) | > 100 µM (inactive) | > 100 µM (inactive) | > 100 µM (inactive) | – | > 100 µM (inactive) | – | > 100 µM (inactive) | > 100 µM (inactive) | > 100 µM (inactive) | > 100 µM (inactive) | > 100 µM (inactive) | > 100 µM (inactive) | > 100 µM (inactive) | – | > 100 µM (inactive) | > 100 µM (inactive) | > 100 µM (inactive)
CCOC(=O)CC(N1CC1)N1CC1 | > 10 µM (inactive) | > 10 µM (inactive) | > 10 µM (inactive) | > 10 µM (inactive) | > 10 µM (inactive) | > 10 µM (inactive) | > 10 µM (inactive) | > 10 µM (inactive) | > 10 µM (inactive) | > 10 µM (inactive) | > 10 µM (inactive) | > 10 µM (inactive) | > 10 µM (inactive) | – | > 10 µM (inactive) | > 10 µM (inactive) | > 10 µM (inactive) | > 10 µM (inactive) | > 10 µM (inactive) | > 10 µM (inactive)
CCCCNCCCNCCCNC(=O)c1csc(-c2csc(CCNC(=O)C(NC(=O)C(C)C(O)C(C)NC(=O)C(NC(=O)c3nc(C(CC(N)=O)NCC(N)C(N)=O)nc(N)c3C)C(OC3OC(CO)C(O)C(O)C3OC3OC(CO)C(O)C(OC(N)=O)C3O)c3c[nH]cn3)C(C)O)n2)n1 (stereo not given) | 0.167 µM (active) | 0.386 µM (active) | 0.362 µM (active) | 9.44 µM (inactive) | 14 µM (inactive) | 43.7 µM (inactive) | 25.1 µM (inactive) | 4.04 µM (inactive) | 8.67 µM (inactive) | 1.43 µM (inactive) | 30.3 µM (inactive) | 0.175 µM (active) | 0.791 µM (active) | 1.92 µM (inactive) | 13.6 µM (inactive) | 2.25 µM (inactive) | 0.247 µM (active) | 4.06 µM (inactive) | 14.3 µM (inactive) | 0.372 µM (active)
CN(C)CCCNC(=O)c1cc(NC(=O)c2cc(NC(=O)c3cc(NC(=O)CCCn4ccc(CO)c4CO)cn3C)cn2C)cn1C | 4.2 µM (inactive) | 14.5 µM (inactive) | > 100 µM (inactive) | 11.2 µM (inactive) | 72.4 µM (inactive) | 63.5 µM (inactive) | – | 3.2 µM (inactive) | > 100 µM (inactive) | – | 27.7 µM (inactive) | 2.97 µM (inactive) | 2.37 µM (inactive) | – | 11.4 µM (inactive) | 25.6 µM (inactive) | 2.71 µM (inactive) | 1.06 µM (active) | – | > 100 µM (inactive)
C/C(Nc1ccc(Cl)cc1)=C1/CCOC1=O | > 100 µM (inactive) | 4.89 µM (inactive) | > 66.1 µM (inactive) | 1.44 µM (inactive) | 34.3 µM (inactive) | 5.68 µM (inactive) | 30.1 µM (inactive) | > 23 µM (inactive) | 0.618 µM (active) | 2.62 µM (inactive) | > 100 µM (inactive) | > 100 µM (inactive) | > 70 µM (inactive) | 7.89 µM (inactive) | > 100 µM (inactive) | 12.7 µM (inactive) | 1.13 µM (inactive) | 59.2 µM (inactive) | 46.5 µM (inactive) | 2.81 µM (inactive)
CC(=O)OC12c3ccccc3-c3ccccc3C1C(C(=O)O)C2C(=O)O (stereo not given) | > 10 µM (inactive) | – | > 10 µM (inactive) | > 10 µM (inactive) | > 10 µM (inactive) | > 10 µM (inactive) | > 10 µM (inactive) | > 10 µM (inactive) | > 10 µM (inactive) | > 10 µM (inactive) | > 10 µM (inactive) | > 10 µM (inactive) | > 10 µM (inactive) | > 10 µM (inactive) | > 10 µM (inactive) | > 10 µM (inactive) | > 10 µM (inactive) | > 10 µM (inactive) | > 10 µM (inactive) | > 10 µM (inactive)
c1ccc([P+](c2ccccc2)(c2ccccc2)c2ccc([P+](c3ccccc3)(c3ccccc3)c3ccccc3)c3ccccc23)cc1 | > 100 µM (inactive) | 70.1 µM (inactive) | > 100 µM (inactive) | 52.7 µM (inactive) | – | 49.2 µM (inactive) | 79.4 µM (inactive) | 94.8 µM (inactive) | 34.4 µM (inactive) | > 100 µM (inactive) | > 100 µM (inactive) | > 100 µM (inactive) | 44.4 µM (inactive) | 88.1 µM (inactive) | > 100 µM (inactive) | > 100 µM (inactive) | 62.1 µM (inactive) | > 100 µM (inactive) | 32 µM (inactive) | > 100 µM (inactive)

From ChEMBL document CHEMBL1201862, “PubChem BioAssay data set” (2004)
